Test results as given in patent publication US20100196290A1, “COMPOSITIONS COMPRISING BETULONIC ACID” (Valtion teknillinen tutkimuskeskus, priority 2006, published 2010).

Experiments:
bacteria = experiment: Antibacterial activity, overall statement on the examples; assay type: cell-based; conditions: concentration of 1 μg/ml
Source text: Erythromycin was used as the control.

Caco-2 cells = experiment: Cytotoxicity tests, viability of Caco-2 cells (LDH, WST-1 and ATP methods); assay type: cell-based, human; conditions: 500 μM, exposure 24 hours
Protocol: Caco-2 cells (cell line used as a model for human intestine) were introduced in a 96 well plate in an amount of 35 000 cells (for LDH method), 45 000 cells (for WST-1 method), or 25 000 cells (for ATP method) per well. After cultivation of 24 hours, the cells were exposed to the compounds being tested for 24 hours by adding said compounds to the culture medium to give a concentration of 500 μM (as stock solutions in DMSO).
The influence of the compounds on the viability of the cells was measured by three different methods. Polymyxin B was used as the control. […] The amount of LDH in the sample due to exposure was quantified by means of an enzymatic reaction using the INT (iodonitrotetrazolium) colour reagent wherein the coloured reaction product formed was determined photometrically at 490 nm. In the WST-1 method, the metabolic activity of the cells after exposure was measured using the WST-1 reagent. Metabolic activity of a cell results in the generation of a coloured product from the reagent, said product being then used to evaluate the viability of the cells by photometric measurements (absorbance at 440 nm). In the ATP method, the amount of ATP within cells decreasing rapidly due to cellular damage was measured. In the method, ATP was luminometrically quantified by means of the ATP dependent luciferase-luciferin reaction. […]

Compound | antibacterial activity (bacteria) | cytotoxicity (Caco-2 cells)
C=C(C)[C@@H]1CC[C@]2(C(=O)O)CC[C@]3(C)[C@H](CC[C@@H]4[C@@]5(C)CCC(=O)C(C)(C)[C@@H]5CC[C@]43C)[C@@H]12 [Yhdiste 5, betulonic acid] | considerable antibacterial activity | low cytotoxicity
C=C(C)[C@@H]1CC[C@]2(COC(=O)c3ccccc3NC(C)=O)CC[C@]3(C)C(CCC4[C@@]5(C)CC[C@H](O)C(C)(C)C5CC[C@]43C)C12 (stereo partly drawn) [Yhdiste 29, 28-N-acetylanthranilic acid ester of betulin] | considerable antibacterial activity | 
